Assay results published in patent publication US20240216344A1, “THIAZOLIDINEDIONE ANALOGS FOR THE TREATMENT OF NAFLD AND METABOLIC DISEASES” (Cirius Therapeutics, Inc., priority 2019, published 2024).

Tested on: patients with biopsy-proven NASH with fibrosis and no cirrhosis
Assay: EMMINENCE Phase 2b trial, markers of glucose metabolism, liver enzymes, fibrosis and apoptosis biomarkers
Format: in vivo, human
Conditions: for Glucose, LS mean change from baseline to 6 months / Glucose, LS mean difference vs placebo at 6 months / HOMA IR, LS mean change from baseline to 6 months / HOMA IR, LS mean difference vs placebo at 6 months / HgBA1C, LS mean change from baseline to 6 months / HgBA1C, LS mean difference vs placebo at 6 months / Insulin, LS mean change from baseline to 6 months / Insulin, LS mean difference vs placebo at 6 months: patients with HbA1C >7%
Experimental: Study Design: EMMINENCE was a randomized, double-blind evaluation of three oral daily doses of MSDC-0602K (62.5 mg, 125 mg and 250 mg) or placebo given for 12 months to adult patients with biopsy-proven NASH with fibrosis and no cirrhosis. The primary efficacy endpoint was assessed at 12 months. Clinic visits were conducted at baseline, 1, 2, 3, 6, 9, and 12 months, followed 2 weeks later by a safety visit. An interim analysis of safety and efficacy not related to the primary and secondary endpoints was conducted when 6 month data were available for 328 patients (see Example 5, above.) Interim results were provided only as summary statistics to avoid any unmasking of the study team or sponsor.
If no usable liver biopsy was available within 9 months prior to screening, a percutaneous liver biopsy was performed in patients with AST≥20 U/L and FibroScan CAP score ≥270 db/m and kPa≥8.5. Digitized slides were read by a single expert histopathologist according to NASH Clinical Research Network criteria. Baseline biopsies were read first for study qualification and a second time mixed randomly among 12-month biopsies. Fasting blood samples for routine central laboratory analyses were collected at each visit, and frozen samples collected at selected visits for biomarker assays.
Efficacy endpoints: The primary efficacy endpoint was hepatic histological improvement in NAS defined as ≥2-point NAS decrease with a ≥1-point reduction in either ballooning or lobular inflammation and no increase in fibrosis stage at 12 months. Secondary efficacy endpoints included (1) NASH resolution defined as hepatocellular ballooning score of 0 and lobular inflammation score of 0-1 with no increase in fibrosis stage at 12 months, (2) fibrosis improvement defined as ≥1-stage decrease in fibrosis with no worsening of lobular inflammation or hepatocellular ballooning, (3) change from baseline in NAFLD activity score (NAS) and each one of its components (steatosis, lobular inflammation and ballooning) at 12 months, and (4) change from baseline in fibrosis score at 12 months. Exploratory efficacy endpoints included shifts in the central histopathologist's NASH diagnosis confirmation, and changes from baseline to 12 months in markers of glycemic control and insulin sensitivity, liver function/injury, and apoptosis and liver fibrosis.
Using a modified intent-to-treat approach, treated patients were included for analysis in their randomly-assigned treatment groups. Participation of sites with serious GCP or quality concerns were terminated and their data excluded from the analyses. Post-baseline measures through 14 days after the last study drug dose were included. No errors in treatment assignment occurred. The central histopathologist's re-read of baseline biopsies was used as baseline. Patients who no longer qualified on re-read were included in the analyses. Each active treatment group was compared to placebo with respect to the primary and secondary histopathologic endpoints using logistic regression including adjustment for randomization strata (diabetes mellitus, baseline fibrosis F1 versus F2/F3), and ordinal baseline NAS. Stratification-adjusted risk differences adjusted similarly are provided. The primary analyses included only observed data; sensitivity analyses included multiply-imputing missing follow-up and considering missing follow-up as a non-responder. Each active dose was compared to placebo regarding changes in NASH CRN scores using analysis of covariance with adjustment for age, sex, diabetes mellitus, Vitamin E≥400 IU, baseline fibrosis F1 versus F2/F3, and the baseline value. Changes in laboratory markers from baseline to 6 months and to 12 months were analyzed similarly.
Post-hoc analyses: Each active dose was compared to placebo regarding the proportion where the pathologist's NASH diagnosis shifted from confirmed at baseline (re-read) to not confirmed at month 12 using logistic regression. […]

COc1cccc(C(=O)COc2ccc(CC3SC(=O)NC3=O)cc2)c1 (stereo not shown) [MSDC-0602K]
proportion of patients with baseline ALT above 19 (women) and 30 (men) U/L whose levels were normal at 12 months (62.5 mg): 10.6% | proportion of patients with baseline ALT above 19 (women) and 30 (men) U/L whose levels were normal at 12 months (125 mg): 20.8% | proportion of patients with baseline ALT above 19 (women) and 30 (men) U/L whose levels were normal at 12 months (250 mg): 33.3% | proportion of patients with baseline ALT above 19 (women) and 30 (men) U/L whose levels were normal at 12 months (combined 125 and 250 mg dose groups): 27.2% | Glucose, LS mean change from baseline to 6 months (62.5 mg): -2.42 mmol/L | Glucose, LS mean difference vs placebo at 6 months (62.5 mg): -1.18 mmol/L | HOMA IR, LS mean change from baseline to 6 months (62.5 mg): −6.472 | HOMA IR, LS mean difference vs placebo at 6 months (62.5 mg): −1.964 | HgBA1C, LS mean change from baseline to 6 months (62.5 mg): −0.61% | HgBA1C, LS mean difference vs placebo at 6 months (62.5 mg): −0.18 % | Insulin, LS mean change from baseline to 6 months (62.5 mg): −7.724 uIU/mL | Insulin, LS mean difference vs placebo at 6 months (62.5 mg): −2.242 uIU/mL | Glucose, LS mean change from baseline to 6 months (125 mg): -3.48 mmol/L | Glucose, LS mean difference vs placebo at 6 months (125 mg): -2.23 mmol/L | HOMA IR, LS mean change from baseline to 6 months (125 mg): −8.178 | HOMA IR, LS mean difference vs placebo at 6 months (125 mg): −3.669 | HgBA1C, LS mean change from baseline to 6 months (125 mg): −1.43% | HgBA1C, LS mean difference vs placebo at 6 months (125 mg): −1.01% | Insulin, LS mean change from baseline to 6 months (125 mg): −8.208 uIU/mL | Insulin, LS mean difference vs placebo at 6 months (125 mg): −2.726 uIU/mL | Glucose, LS mean change from baseline to 6 months (250 mg): -3.24 mmol/L | Glucose, LS mean difference vs placebo at 6 months (250 mg): -1.99 mmol/L | HOMA IR, LS mean change from baseline to 6 months (250 mg): −8.197 | HOMA IR, LS mean difference vs placebo at 6 months (250 mg): −3.689 | HgBA1C, LS mean change from baseline to 6 months (250 mg): −1.00% | HgBA1C, LS mean difference vs placebo at 6 months (250 mg): −0.58% | Insulin, LS mean change from baseline to 6 months (250 mg): −10.066 uIU/mL | Insulin, LS mean difference vs placebo at 6 months (250 mg): −4.584 uIU/mL
